Data taken from ChEMBL document CHEMBL1201862, “PubChem BioAssay data set” (2004).
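Grown in 96-well plates, cells were treated for 48 hours with each compound at five concentrations. Insufficient inhibition: endpoint recorded as highest concentration tested. GI50 marks 50% less growth.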 The source made the active and inactive calls. Cut-off read from the data, not from the text of the source: active = GI50 up to about 1.1 µM and inactive = higher.

Legend:
Assay in all cases: DTP human tumour cell line panel, 48 h
[1] = test system: SR
[2] = test system: SK-OV-3
[3] = test system: NCI-H522
[4] = test system: U-251
[5] = test system: MDA-MB-435
[6] = test system: SF-268
[7] = test system: OVCAR-4
[8] = test system: NCI-H226
[9] = test system: K562
[10] = test system: A549
[11] = test system: CAKI-1
[12] = test system: A498
[13] = test system: 786-0
[14] = test system: DU-145
[15] = test system: RPMI-8226
[16] = test system: TK-10
[17] = test system: HOP-92
[18] = test system: SN12C
[19] = test system: HCT-116
[20] = test system: UACC-62
[21] = test system: SK-MEL-28
[22] = test system: MCF7
[23] = test system: ACHN
[24] = test system: M14
[25] = test system: Hs-578T
[26] = test system: EKVX
[27] = test system: HCT-15
[28] = test system: NCI/ADR-RES
[29] = test system: SNB-75
[30] = test system: OVCAR-3
[31] = test system: UACC-257
[32] = test system: MDA-MB-231
[33] = test system: MDA-N
[34] = test system: NCI-H460
[35] = test system: NCI-H23
[36] = test system: MOLT-4
[37] = test system: IGROV-1
[38] = test system: HOP-62
[39] = test system: SK-MEL-5
[40] = test system: BT-549
[41] = test system: CCRF-CEM
[42] = test system: OVCAR-8
[43] = test system: PC-3
[44] = test system: HL-60
[45] = test system: KM12
[46] = test system: SF-539
[47] = test system: Malme-3M
[48] = test system: SW-620
[49] = test system: LOX IMVI
[50] = test system: T47D
[51] = test system: COLO 205
[52] = test system: HCC 2998
[53] = test system: SK-MEL-2
[54] = test system: SF-295
[55] = test system: OVCAR-5
[56] = test system: HT-29
[57] = test system: UO-31
[58] = test system: SNB-19

SMILES: O=[N+]([O-])c1ccc(C2=NOC(c3ccccc3F)N2C23CC4CC(CC(C4)C2)C3)cc1 (configuration not stated)
- GI50 [1]: > 100 µM (inactive)
- GI50 [2]: > 100 µM (inactive)
- GI50 [3]: > 100 µM (inactive)
- GI50 [4]: > 100 µM (inactive)
- GI50 [5]: > 100 µM (inactive)
- GI50 [6]: > 100 µM (inactive)
- GI50 [7]: > 100 µM (inactive)
- GI50 [8]: > 100 µM (inactive)
- GI50 [9]: > 100 µM (inactive)
- GI50 [10]: > 100 µM (inactive)
- GI50 [11]: > 100 µM (inactive)
- GI50 [12]: > 100 µM (inactive)
- GI50 [13]: > 100 µM (inactive)
- GI50 [14]: > 100 µM (inactive)
- GI50 [15]: 98.9 µM (inactive)
- GI50 [16]: > 100 µM (inactive)
- GI50 [17]: 7.43 µM (inactive)
- GI50 [18]: > 100 µM (inactive)
- GI50 [19]: > 100 µM (inactive)
- GI50 [20]: > 100 µM (inactive)
- GI50 [21]: > 100 µM (inactive)
- GI50 [22]: > 100 µM (inactive)
- GI50 [23]: > 100 µM (inactive)
- GI50 [24]: > 100 µM (inactive)
- GI50 [25]: > 100 µM (inactive)
- GI50 [26]: > 100 µM (inactive)
- GI50 [27]: > 100 µM
- GI50 [28]: > 100 µM (inactive)
- GI50 [29]: > 100 µM (inactive)
- GI50 [30]: > 100 µM (inactive)
- GI50 [31]: > 100 µM (inactive)
- GI50 [32]: > 100 µM (inactive)
- GI50 [33]: > 100 µM (inactive)
- GI50 [34]: > 100 µM (inactive)
- GI50 [35]: > 100 µM (inactive)
- GI50 [36]: > 100 µM (inactive)
- GI50 [37]: > 100 µM (inactive)
- GI50 [38]: > 100 µM (inactive)
- GI50 [39]: > 100 µM (inactive)
- GI50 [40]: > 100 µM (inactive)
- GI50 [41]: > 100 µM (inactive)
- GI50 [42]: > 100 µM (inactive)
- GI50 [43]: > 100 µM (inactive)
- GI50 [44]: 25.9 µM (inactive)
- GI50 [45]: > 100 µM (inactive)
- GI50 [46]: > 100 µM (inactive)
- GI50 [47]: > 100 µM (inactive)
- GI50 [48]: > 100 µM (inactive)
- GI50 [49]: > 100 µM (inactive)
- GI50 [50]: > 100 µM (inactive)
- GI50 [51]: > 100 µM (inactive)
- GI50 [52]: > 100 µM (inactive)
- GI50 [53]: > 100 µM (inactive)
- GI50 [54]: > 100 µM (inactive)
- GI50 [55]: > 100 µM (inactive)
- GI50 [56]: > 100 µM (inactive)
- GI50 [57]: > 100 µM (inactive)

SMILES: OC(c1ccc2c(c1)OCO2)c1ccc2c(c1)OCO2
- GI50 [1]: > 100 µM (inactive)
- GI50 [2]: > 100 µM (inactive)
- GI50 [3]: > 100 µM (inactive)
- GI50 [4]: > 100 µM (inactive)
- GI50 [5]: > 100 µM (inactive)
- GI50 [6]: 53.6 µM (inactive)
- GI50 [7]: > 100 µM (inactive)
- GI50 [8]: > 100 µM (inactive)
- GI50 [9]: > 100 µM (inactive)
- GI50 [10]: > 100 µM (inactive)
- GI50 [11]: > 100 µM (inactive)
- GI50 [12]: 54 µM (inactive)
- GI50 [13]: > 100 µM (inactive)
- GI50 [14]: > 100 µM (inactive)
- GI50 [15]: > 100 µM (inactive)
- GI50 [16]: > 100 µM (inactive)
- GI50 [17]: > 100 µM (inactive)
- GI50 [18]: > 100 µM (inactive)
- GI50 [19]: > 100 µM (inactive)
- GI50 [20]: > 100 µM (inactive)
- GI50 [21]: > 100 µM (inactive)
- GI50 [22]: > 100 µM (inactive)
- GI50 [23]: > 100 µM (inactive)
- GI50 [24]: > 100 µM (inactive)
- GI50 [25]: > 100 µM (inactive)
- GI50 [26]: > 100 µM (inactive)
- GI50 [27]: > 100 µM
- GI50 [28]: > 100 µM (inactive)
- GI50 [29]: 80.4 µM (inactive)
- GI50 [30]: > 100 µM (inactive)
- GI50 [31]: > 100 µM (inactive)
- GI50 [32]: > 100 µM (inactive)
- GI50 [33]: > 100 µM (inactive)
- GI50 [34]: > 100 µM (inactive)
- GI50 [35]: > 100 µM (inactive)
- GI50 [36]: > 100 µM (inactive)
- GI50 [37]: > 100 µM (inactive)
- GI50 [38]: > 100 µM (inactive)
- GI50 [39]: > 100 µM (inactive)
- GI50 [40]: > 100 µM (inactive)
- GI50 [41]: > 100 µM (inactive)
- GI50 [42]: > 100 µM (inactive)
- GI50 [43]: > 100 µM (inactive)
- GI50 [44]: > 100 µM (inactive)
- GI50 [58]: > 100 µM (inactive)
- GI50 [45]: > 100 µM (inactive)
- GI50 [46]: > 100 µM (inactive)
- GI50 [47]: > 100 µM (inactive)
- GI50 [48]: > 100 µM (inactive)
- GI50 [49]: > 100 µM (inactive)
- GI50 [50]: > 100 µM (inactive)
- GI50 [51]: > 100 µM (inactive)
- GI50 [52]: > 100 µM (inactive)
- GI50 [53]: > 100 µM (inactive)
- GI50 [54]: > 100 µM (inactive)
- GI50 [55]: > 100 µM (inactive)
- GI50 [56]: > 100 µM (inactive)
- GI50 [57]: 75 µM (inactive)

SMILES: CN(C)CC1CCC/C(=C\c2ccc(OC(=O)c3ccc(Cl)cc3)cc2)C1=O (configuration not stated)
- GI50 [1]: 0.583 µM (active)
- GI50 [2]: 10.3 µM (inactive)
- GI50 [4]: 1.5 µM (inactive)
- GI50 [5]: 1.95 µM (inactive)
- GI50 [6]: 4.26 µM (inactive)
- GI50 [7]: 2.8 µM (inactive)
- GI50 [8]: 3.06 µM (inactive)
- GI50 [9]: 0.912 µM (active)
- GI50 [10]: 2.38 µM (inactive)
- GI50 [11]: 2.19 µM (inactive)
- GI50 [12]: 7.26 µM (inactive)
- GI50 [13]: 0.867 µM (active)
- GI50 [14]: 2.39 µM (inactive)
- GI50 [15]: 0.465 µM (active)
- GI50 [16]: 1.95 µM (inactive)
- GI50 [17]: 2.07 µM (inactive)
- GI50 [18]: 2.14 µM (inactive)
- GI50 [19]: 0.832 µM (active)
- GI50 [20]: 3.3 µM (inactive)
- GI50 [21]: 3.15 µM (inactive)
- GI50 [22]: 0.33 µM (active)
- GI50 [23]: 3.57 µM (inactive)
- GI50 [24]: 1.68 µM (inactive)
- GI50 [25]: 2.57 µM (inactive)
- GI50 [26]: 2.34 µM (inactive)
- GI50 [27]: 1.57 µM
- GI50 [28]: 2.12 µM (inactive)
- GI50 [29]: 4.12 µM (inactive)
- GI50 [30]: 1.6 µM (inactive)
- GI50 [31]: 4.29 µM (inactive)
- GI50 [32]: 2.45 µM (inactive)
- GI50 [33]: 2.38 µM (inactive)
- GI50 [34]: 5.36 µM (inactive)
- GI50 [35]: 1.69 µM (inactive)
- GI50 [36]: 0.661 µM (active)
- GI50 [37]: 2.23 µM (inactive)
- GI50 [38]: 3.99 µM (inactive)
- GI50 [39]: 3.69 µM (inactive)
- GI50 [40]: 2.81 µM (inactive)
- GI50 [41]: 0.33 µM (active)
- GI50 [42]: 1.58 µM (inactive)
- GI50 [43]: 6.04 µM (inactive)
- GI50 [44]: 1.32 µM (inactive)
- GI50 [58]: 3.36 µM (inactive)
- GI50 [45]: 1.57 µM (inactive)
- GI50 [46]: 3 µM (inactive)
- GI50 [47]: 2.55 µM (inactive)
- GI50 [48]: 1.1 µM (active)
- GI50 [49]: 0.493 µM (active)
- GI50 [50]: 0.757 µM (active)
- GI50 [51]: 1.97 µM (inactive)
- GI50 [52]: 9.95 µM (inactive)
- GI50 [53]: 4.31 µM (inactive)
- GI50 [54]: 3.84 µM (inactive)
- GI50 [55]: 2.25 µM (inactive)
- GI50 [56]: 1.95 µM (inactive)
- GI50 [57]: 1.5 µM (inactive)
